Values belong to the molecule of their own block, whether it stands above or below them.
How the values were obtained:
[1] = target: T1, Histone-lysine N-methyltransferase, H3 lysine-79 specific (Homo sapiens, UniProt Q8TEK3); experiment: (§1) Inhibition of recombinant human His6-SUMO tagged DOT1L (1 to 416 residues) expressed in Escherichia coli BL21(DE3) at 50 uM using oligonucleosome as substrate pretreated for 15 mins followed by substrate addition measured after 60 mins in presence of [3H]SAM by liquid scintillation counting method relative to control
Target sequence in this assay (Q8TEK3 whole entry, looked up, the tested form may be a part): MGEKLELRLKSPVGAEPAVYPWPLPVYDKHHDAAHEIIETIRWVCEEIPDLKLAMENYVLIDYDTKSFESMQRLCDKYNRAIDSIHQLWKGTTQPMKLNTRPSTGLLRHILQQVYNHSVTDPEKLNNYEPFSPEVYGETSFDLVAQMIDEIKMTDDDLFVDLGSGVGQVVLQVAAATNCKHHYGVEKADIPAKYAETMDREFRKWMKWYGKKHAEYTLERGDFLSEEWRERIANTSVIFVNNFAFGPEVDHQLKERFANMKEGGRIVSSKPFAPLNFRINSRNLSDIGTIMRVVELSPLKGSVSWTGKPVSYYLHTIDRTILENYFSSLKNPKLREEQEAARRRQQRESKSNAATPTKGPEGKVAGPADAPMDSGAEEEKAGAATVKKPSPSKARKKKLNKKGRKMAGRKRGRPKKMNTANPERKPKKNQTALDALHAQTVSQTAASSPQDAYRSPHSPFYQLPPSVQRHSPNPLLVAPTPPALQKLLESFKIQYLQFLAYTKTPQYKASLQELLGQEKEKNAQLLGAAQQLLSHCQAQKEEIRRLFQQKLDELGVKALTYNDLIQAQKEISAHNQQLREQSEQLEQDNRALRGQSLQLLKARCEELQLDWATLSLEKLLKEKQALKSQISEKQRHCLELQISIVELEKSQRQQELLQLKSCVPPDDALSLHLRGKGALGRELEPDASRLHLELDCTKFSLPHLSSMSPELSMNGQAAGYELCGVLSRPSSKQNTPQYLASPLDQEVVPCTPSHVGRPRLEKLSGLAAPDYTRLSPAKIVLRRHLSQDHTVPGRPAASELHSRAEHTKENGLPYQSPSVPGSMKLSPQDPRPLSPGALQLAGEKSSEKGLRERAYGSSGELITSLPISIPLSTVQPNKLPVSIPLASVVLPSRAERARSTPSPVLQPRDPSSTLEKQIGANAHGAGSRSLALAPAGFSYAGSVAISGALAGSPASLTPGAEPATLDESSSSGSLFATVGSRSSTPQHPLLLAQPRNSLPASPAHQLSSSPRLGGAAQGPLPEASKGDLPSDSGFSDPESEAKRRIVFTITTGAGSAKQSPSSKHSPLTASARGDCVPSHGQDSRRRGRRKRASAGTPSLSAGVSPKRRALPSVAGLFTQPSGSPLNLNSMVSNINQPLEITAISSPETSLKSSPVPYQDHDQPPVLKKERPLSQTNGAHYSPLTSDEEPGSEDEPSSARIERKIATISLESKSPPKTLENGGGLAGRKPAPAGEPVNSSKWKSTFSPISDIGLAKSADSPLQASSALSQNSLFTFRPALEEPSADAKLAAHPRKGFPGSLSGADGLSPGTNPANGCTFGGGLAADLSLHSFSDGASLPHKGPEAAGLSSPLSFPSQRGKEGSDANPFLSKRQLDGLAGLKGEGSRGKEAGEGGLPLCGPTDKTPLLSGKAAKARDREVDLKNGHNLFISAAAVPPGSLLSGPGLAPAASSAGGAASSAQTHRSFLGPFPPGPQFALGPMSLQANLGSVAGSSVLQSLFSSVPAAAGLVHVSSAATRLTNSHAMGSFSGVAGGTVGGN

[2] = target: T1, Histone-lysine N-methyltransferase, H3 lysine-79 specific; experiment: as §1, with “100” for “50”
Target sequence in this assay (Q8TEK3 whole entry, looked up, the tested form may be a part): as above

[3] = target: T1, Histone-lysine N-methyltransferase, H3 lysine-79 specific; experiment: as §1, with “25” for “50”
Target sequence in this assay (Q8TEK3 whole entry, looked up, the tested form may be a part): as above

[4] = target: T1, Histone-lysine N-methyltransferase, H3 lysine-79 specific; experiment: Binding affinity to recombinant human His6-SUMO tagged DOT1L (1 to 416 residues) expressed in Escherichia coli BL21(DE3) by surface plasmon resonance method
Target sequence in this assay (Q8TEK3 whole entry, the tested form may be a part): as the sequence (Q8TEK3 whole entry, looked up, the tested form may be a part) above

[5] = target: T1, Histone-lysine N-methyltransferase, H3 lysine-79 specific; experiment: Inhibition of recombinant human His6-SUMO tagged DOT1L (1 to 416 residues) expressed in Escherichia coli BL21(DE3) using oligonucleosome as substrate pretreated for 15 mins followed by substrate addition measured after 60 mins in presence of [3H]SAM by liquid scintillation counting method
Target sequence in this assay (Q8TEK3 whole entry, the tested form may be a part): as the sequence (Q8TEK3 whole entry, looked up, the tested form may be a part) above

[6] = system: MV4-11; experiment: Antiproliferative activity against human MV411 cells after 72 hrs by Alamar blue assay; type: functional, cell-based; details: MV4-11, 72 h
[7] = target: T1, Histone-lysine N-methyltransferase, H3 lysine-79 specific; experiment: Inhibition of recombinant human His6-SUMO tagged DOT1L (1 to 416 residues) expressed in Escherichia coli BL21(DE3) using oligonucleosome as substrate measured after 30 mins in presence of SAM by AlphaLISA assay
Target sequence in this assay (Q8TEK3 whole entry, the tested form may be a part): as the sequence (Q8TEK3 whole entry, looked up, the tested form may be a part) above

[8] = system: MV4-11; experiment: Induction of apoptosis in human MV411 cells assessed as necrotic cells at 25 uM after 48 hrs by Annexin-V-FITC/propidium iodide staining based flow cytometric method (Rvb <= 0.08%); type: functional
[9] = system: MV4-11; experiment: Cell cycle arrest in human MV411 cells assessed as accumulation at G2 phase at 25 uM after 24 hrs by propidium iodide staining based flow cytometric analysis (reference value: 4.19 to 11.88%); type: functional
[10] = system: MV4-11; experiment: Induction of apoptosis in human MV411 cells assessed as viable cells at 12.5 uM after 48 hrs by Annexin-V-FITC/propidium iodide staining based flow cytometric method (reference value: 88.5 to 94.5%); type: functional; details: MV4-11, 48 h, read-out: Activity
[11] = system: MV4-11; experiment: Cell cycle arrest in human MV411 cells assessed as accumulation at G1 phase after 24 hrs by propidium iodide staining based flow cytometric analysis; type: functional
[12] = system: MV4-11; experiment: Induction of apoptosis in human MV411 cells assessed as late apoptotic cells at 50 uM after 48 hrs by Annexin-V-FITC/propidium iodide staining based flow cytometric method (reference value: 4.38 to 4.63%); type: functional
[13] = system: MV4-11; experiment: Induction of apoptosis in human MV411 cells assessed as viable cells at 50 uM after 48 hrs by Annexin-V-FITC/propidium iodide staining based flow cytometric method (reference value: 88.5 to 94.5%); type: functional; details: MV4-11, 48 h, read-out: Activity
[14] = system: MV4-11; experiment: Cell cycle arrest in human MV411 cells assessed as accumulation at S phase at 25 uM after 24 hrs by propidium iodide staining based flow cytometric analysis (reference value: 30.25 to 47.5%); type: functional
[15] = system: MV4-11; experiment: Induction of apoptosis in human MV411 cells assessed as late apoptotic cells at 25 uM after 48 hrs by Annexin-V-FITC/propidium iodide staining based flow cytometric method (reference value: 4.38 to 4.63%); type: functional
[16] = system: MV4-11; experiment: Induction of apoptosis in human MV411 cells assessed as viable cells at 25 uM after 48 hrs by Annexin-V-FITC/propidium iodide staining based flow cytometric method (reference value: 88.5 to 94.5%); type: functional; details: MV4-11, 48 h, read-out: Activity
[17] = system: MV4-11; experiment: Cell cycle arrest in human MV411 cells assessed as accumulation at G1 phase at 50 uM after 24 hrs by propidium iodide staining based flow cytometric analysis (reference value: 40.62 to 65.56%); type: functional
[18] = system: MV4-11; experiment: Cell cycle arrest in human MV411 cells assessed as accumulation at S phase at 12.5 uM after 24 hrs by propidium iodide staining based flow cytometric analysis (reference value: 30.25 to 47.5%); type: functional
[19] = system: MV4-11; experiment: Cell cycle arrest in human MV411 cells assessed as accumulation at G2 phase at 50 uM after 24 hrs by propidium iodide staining based flow cytometric analysis (reference value: 4.19 to 11.88%); type: functional
[20] = system: MV4-11; experiment: Cell cycle arrest in human MV411 cells assessed as accumulation at S phase at 50 uM after 24 hrs by propidium iodide staining based flow cytometric analysis (reference value: 30.25 to 47.5%); type: functional
[21] = system: MV4-11; experiment: Cell cycle arrest in human MV411 cells assessed as accumulation at G2 phase at 12.5 uM after 24 hrs by propidium iodide staining based flow cytometric analysis (reference value: 4.19 to 11.88%); type: functional
[22] = system: MV4-11; experiment: Cell cycle arrest in human MV411 cells assessed as accumulation at G1 phase at 12.5 uM after 24 hrs by propidium iodide staining based flow cytometric analysis (reference value: 40.62 to 65.56%); type: functional
[23] = system: MV4-11; experiment: Induction of apoptosis in human MV411 cells assessed as early apoptotic cells at 12.5 uM after 48 hrs by Annexin-V-FITC/propidium iodide staining based flow cytometric method (reference value: 1.15 to […]); type: functional
[24] = system: MV4-11; experiment: Cell cycle arrest in human MV411 cells assessed as accumulation at G1 phase at 25 uM after 24 hrs by propidium iodide staining based flow cytometric analysis (reference value: 40.62 to 65.56%); type: functional
[25] = system: MV4-11; experiment: Induction of apoptosis in human MV411 cells assessed as necrotic cells at 12.5 uM after 48 hrs by Annexin-V-FITC/propidium iodide staining based flow cytometric method (Rvb <= 0.08%); type: functional
[26] = system: MV4-11; experiment: Induction of apoptosis in human MV411 cells assessed as early apoptotic cells at 25 uM after 48 hrs by Annexin-V-FITC/propidium iodide staining based flow cytometric method (reference value: 1.15 to […]); type: functional
[27] = system: MV4-11; experiment: Induction of apoptosis in human MV411 cells assessed as early apoptotic cells at 50 uM after 48 hrs by Annexin-V-FITC/propidium iodide staining based flow cytometric method (reference value: 1.15 to […]); type: functional
[28] = system: MV4-11; experiment: Induction of apoptosis in human MV411 cells assessed as late apoptotic cells at 12.5 uM after 48 hrs by Annexin-V-FITC/propidium iodide staining based flow cytometric method (reference value: 4.38 to 4.63%); type: functional
[29] = system: MV4-11; experiment: Induction of apoptosis in human MV411 cells assessed as necrotic cells at 50 uM after 48 hrs by Annexin-V-FITC/propidium iodide staining based flow cytometric method (Rvb <= 0.08%); type: functional

SMILES: Fc1ccc(-c2nnc3sc(/C=C/c4ccco4)nn23)cc1
- inhibition [1]: 44%
- inhibition [2]: 40%

SMILES: Nc1ncnc2c1ncn2[C@@H]1O[C@H](C[C@@H](N)CC[C@H](N)C(=O)O)[C@@H](O)[C@H]1O [SINEFUNGIN]
- IC50 [7]: 33.7 µM

SMILES: C(=C\c1nn2c(C3CCCCC3)nnc2s1)/c1ccco1
- inhibition [3]: 40.2%
- inhibition [1]: 68%
- inhibition [2]: 72%

SMILES: C(=C\c1nn2c(N3CCOCC3)nnc2s1)/c1ccco1
- inhibition [3]: 45%
- inhibition [1]: 55%
- inhibition [2]: 65%

SMILES: COc1cc(-c2nnc3sc(/C=C/c4ccco4)nn23)cc(OC)c1OC
- inhibition [3]: 48.1%
- inhibition [1]: 53%
- inhibition [2]: 60%

SMILES: COc1cccc(-c2nnc3sc(/C=C/c4ccco4)nn23)c1
- inhibition [3]: 48.5%
- inhibition [1]: 51%
- inhibition [2]: 59%

SMILES: CN(C)c1ccc(-c2nnc3sc(/C=C/c4ccco4)nn23)cc1
- Activity [8]: 0.04%
- Activity [9]: 3.64%
- viability at 12.5 µM [10]: 91.6%
- Activity [11]: Dose-dependent effect
- Activity [12]: 49.8%
- viability at 50 µM [13]: 0.83%
- inhibition [3]: 56%
- Kd [4]: 9.3 µM
- Activity [14]: 25.46%
- Activity [15]: 42.4%
- viability at 25 µM [16]: 22.2%
- Activity [17]: 81.23%
- inhibition [1]: 60%
- IC50 [7]: 20.9 µM
- IC50 [5]: 20.9 µM
- inhibition [2]: 73%
- Activity [18]: 25.96%
- Activity [19]: 0%
- Activity [20]: 17.77%
- Activity [21]: 4.64%
- Activity [22]: 69.4%
- Activity [23]: 2.01%
- IC50 [6]: 51.5 µM
- Activity [24]: 70.9%
- Activity [25]: 0.05%
- Activity [26]: 35.4%
- Activity [27]: 49.3%
- Activity [28]: 6.29%
- Activity [29]: 0.09%

SMILES: Cc1cccc(-c2nnc3sc(/C=C/c4ccco4)nn23)c1
- inhibition [3]: 66.6%
- Kd [4]: 1.21 µM
- inhibition [1]: 69%
- IC50 [5]: 9.41 µM
- inhibition [2]: 74%
- IC50 [6]: 124 µM

SMILES: C(=C\c1nn2c(-c3ccncc3)nnc2s1)/c1ccco1
- inhibition [3]: 54%
- Kd [4]: 7.4 µM
- inhibition [1]: 67%
- IC50 [5]: 13.7 µM
- inhibition [2]: 82%
- IC50 [6]: 66.5 µM

SMILES: C(=C\c1nn2c(-c3cc4ccccc4o3)nnc2s1)/c1ccco1
- inhibition [3]: 9%
- inhibition [1]: 71%
- inhibition [2]: 88%

SMILES: COc1ccccc1/C=C/c1nn2c(-c3ccc(N(C)C)cc3)nnc2s1
- inhibition [3]: 38.5%
- inhibition [1]: 53%
- inhibition [2]: 53%

Next, values leading:

- inhibition [3]: 79.4%
- Kd [4]: 4.78 to 4.87 µM
- inhibition [1]: 79%
- IC50 [5]: 7.01 µM
- inhibition [2]: 81%
- IC50 [6]: 64.7 µM
SMILES: C(=C\c1nn2c(-c3ccccc3)nnc2s1)/c1ccco1

- inhibition [1]: 13%
- inhibition [2]: 24%
SMILES: Cc1occc1-c1nnc2sc(Cc3ccccc3)nn12

- inhibition [1]: 11%
- inhibition [2]: 27%
SMILES: Cc1occc1-c1nnc2sc(CCc3ccccc3)nn12

- inhibition [3]: 43%
- inhibition [1]: 59%
- inhibition [2]: 77%
SMILES: c1ccc2c(Cc3nn4c(-c5ccoc5)nnc4s3)cccc2c1

- inhibition [1]: 43%
- inhibition [2]: 50%
SMILES: Fc1cccc(-c2nnc3sc(CCc4ccccc4)nn23)c1

- inhibition [1]: 22%
- inhibition [2]: 29%
SMILES: Fc1cccc(-c2nnc3sc(/C=C/c4ccco4)nn23)c1

- inhibition [1]: 17%
- inhibition [2]: 41%
SMILES: Cc1occc1-c1nnc2sc(CCCc3ccccc3)nn12

— ChEMBL document CHEMBL4219142, “Discovery of potent DOT1L inhibitors by AlphaLISA based High Throughput Screening assay” (Bioorg Med Chem, 2018)
